In PubChem BioAssay (NCI):
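Here, GI50 denotes the concentration required for 50% inhibition of growth. The concentration for full growth arrest is given as TGI.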

Tests used:
Assay in all cases: NCI-60 cell line screen, 384-well format
[1] = tested on: COLO 205 colon
[2] = tested on: A549 NSCLC
[3] = tested on: MDA-MB-231 breast
[4] = tested on: SW-620 colon
[5] = tested on: NCI/ADR-RES ovarian
[6] = tested on: UO-31 renal
[7] = tested on: HOP-62 NSCLC
[8] = tested on: SNB-19 CNS
[9] = tested on: SN12C renal
[10] = tested on: MALME-3M melanoma
[11] = tested on: PC-3 prostate
[12] = tested on: SK-MEL-5 melanoma
[13] = tested on: MOLT-4 leukemia
[14] = tested on: NCI-H460 NSCLC
[15] = tested on: SK-MEL-28 melanoma
[16] = tested on: HOP-92 NSCLC
[17] = tested on: MDA-MB-468 breast
[18] = tested on: M14 melanoma
[19] = tested on: NCI-H522 lung
[20] = tested on: OVCAR-4 ovarian
[21] = tested on: HS 578T breast
[22] = tested on: OVCAR-8 ovarian
[23] = tested on: NCI-H322M lung
[24] = tested on: IGROV1 ovarian
[25] = tested on: MCF7 breast
[26] = tested on: CCRF-CEM leukemia
[27] = tested on: SF-295 CNS
[28] = tested on: OVCAR-5 ovarian
[29] = tested on: K-562 leukemia
[30] = tested on: U251 glioblastoma
[31] = tested on: 786-0 renal
[32] = tested on: SNB-75 CNS
[33] = tested on: SK-OV-3 ovarian
[34] = tested on: SF-539 CNS
[35] = tested on: NCI-H226 lung
[36] = tested on: NCI-H23 lung
[37] = tested on: DU-145 prostate
[38] = tested on: HCT-15 colon
[39] = tested on: TK-10 renal
[40] = tested on: RPMI-8226 leukemia
[41] = tested on: EKVX NSCLC
[42] = tested on: LOX IMVI melanoma
[43] = tested on: BT-549 breast
[44] = tested on: KM12 colon
[45] = tested on: UACC-257 melanoma
[46] = tested on: HL-60(TB) leukemia
[47] = tested on: T-47D breast
[48] = tested on: UACC-62 melanoma
[49] = tested on: SF-268 CNS
[50] = tested on: A498 renal
[51] = tested on: CAKI-1 renal
[52] = tested on: HCC-2998 colon
[53] = tested on: HT29 colon
[54] = tested on: OVCAR-3 ovarian
[55] = tested on: RXF 393 renal
[56] = tested on: HCT-116 colon
[57] = tested on: ACHN renal
[58] = tested on: MDA-MB-435 melanoma

SMILES: CCCCCCCC/C=C/CCCCCCCC(=O)OC[C@H]1O[C@@H](n2ccc(N)nc2=O)C(F)(F)[C@@H]1O
- GI50 [1]: < 10 nM
- TGI [1]: 49.6 nM
- GI50 [2]: < 10 nM
- TGI [2]: 11900 nM
- GI50 [3]: 234 nM
- TGI [3]: 13500 nM
- GI50 [4]: < 10 nM
- TGI [4]: 46000 nM
- GI50 [5]: < 10 nM
- TGI [5]: < 10 nM
- GI50 [6]: < 10 nM
- TGI [6]: < 10 nM
- GI50 [7]: < 10 nM
- TGI [7]: < 10 nM
- GI50 [8]: < 10 nM
- TGI [8]: 518 nM
- GI50 [9]: < 10 nM
- TGI [9]: 39.9 nM
- GI50 [10]: < 10 nM
- TGI [10]: 15100 nM
- GI50 [11]: 2050 nM
- TGI [11]: 35600 nM
- GI50 [12]: < 10 nM
- TGI [12]: 24.7 nM
- GI50 [13]: < 10 nM
- TGI [13]: < 10 nM
- GI50 [14]: < 10 nM
- TGI [14]: < 10 nM
- GI50 [15]: < 10 nM
- TGI [15]: 51500 nM
- GI50 [16]: 10.5 nM
- TGI [16]: 22400 nM
- GI50 [17]: < 10 nM
- TGI [17]: < 10 nM
- GI50 [18]: < 10 nM
- TGI [18]: < 10 nM
- GI50 [19]: < 10 nM
- TGI [19]: 2220 nM
- GI50 [20]: 38800 nM
- TGI [20]: > 100000 nM
- GI50 [21]: < 10 nM
- TGI [21]: 16500 nM
- GI50 [22]: < 10 nM
- TGI [22]: < 10 nM
- GI50 [23]: 1310 nM
- TGI [23]: > 100000 nM
- GI50 [24]: < 10 nM
- TGI [24]: 81400 nM
- GI50 [25]: < 10 nM
- TGI [25]: 14100 nM
- GI50 [26]: < 10 nM
- TGI [26]: < 10 nM
- GI50 [27]: < 10 nM
- TGI [27]: 18.5 nM
- GI50 [28]: < 10 nM
- TGI [28]: > 100000 nM
- GI50 [29]: < 10 nM
- TGI [29]: 15000 nM
- GI50 [30]: < 10 nM
- TGI [30]: < 10 nM
- GI50 [31]: < 10 nM
- TGI [31]: < 10 nM
- GI50 [32]: < 10 nM
- TGI [32]: 49.2 nM
- GI50 [33]: < 10 nM
- TGI [33]: 2420 nM
- GI50 [34]: < 10 nM
- TGI [34]: < 10 nM
- GI50 [35]: 24.8 nM
- TGI [35]: 83.2 nM
- GI50 [36]: < 10 nM
- TGI [36]: < 10 nM
- GI50 [37]: < 10 nM
- TGI [37]: 2390 nM
- GI50 [38]: < 10 nM
- TGI [38]: 59700 nM
- GI50 [39]: > 100000 nM
- TGI [39]: > 100000 nM
- GI50 [40]: < 10 nM
- TGI [40]: < 10 nM
- GI50 [41]: 57.6 nM
- TGI [41]: 15400 nM
- GI50 [42]: < 10 nM
- TGI [42]: 18.8 nM
- GI50 [43]: < 10 nM
- TGI [43]: < 10 nM
- GI50 [44]: < 10 nM
- TGI [44]: 15300 nM
- GI50 [45]: < 10 nM
- TGI [45]: 92 nM
- GI50 [46]: < 10 nM
- TGI [46]: < 10 nM
- GI50 [47]: < 10 nM
- TGI [47]: 1560 nM
- GI50 [48]: < 10 nM
- TGI [48]: < 10 nM
- GI50 [49]: < 10 nM
- TGI [49]: < 10 nM
- GI50 [50]: < 10 nM
- TGI [50]: 14900 nM
- GI50 [51]: < 10 nM
- TGI [51]: 2990 nM
- GI50 [52]: < 10 nM
- TGI [52]: 11.1 nM
- GI50 [53]: < 10 nM
- TGI [53]: 8700 nM
- GI50 [54]: < 10 nM
- TGI [54]: 16700 nM
- GI50 [55]: < 10 nM
- TGI [55]: 90.2 nM
- GI50 [56]: < 10 nM
- TGI [56]: 10200 nM
- GI50 [57]: < 10 nM
- TGI [57]: < 10 nM
- GI50 [58]: 138 nM
- TGI [58]: 15600 nM
